This is an account of results in patent US20260166039A1 (SCHRÖDINGER, INC., priority 2022, published 2026).

T1 sequence (P30291 299-569 limits assumed): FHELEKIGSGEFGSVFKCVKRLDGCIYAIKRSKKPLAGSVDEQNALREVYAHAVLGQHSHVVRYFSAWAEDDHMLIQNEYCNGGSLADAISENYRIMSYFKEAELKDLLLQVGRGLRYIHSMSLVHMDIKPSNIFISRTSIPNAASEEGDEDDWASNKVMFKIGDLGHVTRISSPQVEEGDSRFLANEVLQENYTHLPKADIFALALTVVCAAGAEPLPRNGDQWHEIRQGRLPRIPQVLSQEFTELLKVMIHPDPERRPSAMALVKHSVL

This test has as its target T1, Wee1 kinase domain (Homo sapiens, UniProt P30291).
T1 construct: Wee1 kinase domain was purchased from Carna (catalog #05-177); purchased Carna 05-177
The test is described as follows: Wee1 Kinase Biochemical Assay (ADP-Glo). To be noted: class symbols; 1 nM Wee1 enzyme, 15 uM ATP, 4 hours at 25° C. The essentials: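 1 nM enzyme; 15 uM ATP; 2 ng/mL poly(Lys,Tyr 4:1); 40 mM Tris-HCl, 20 mM MgCl2, 0.1 mg/mL BSA, 2 mM DTT; 4 h, 25 °C; ADP-Glo; % inhibition vs DMSO and saturating positive-control wells.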
Take `CN1CCC(c2ccc(Nc3ncc4c(n3)N(c3cccc(N=S(C)(C)=O)c3)[C@H]3CC(C)(C)OC[C@@]43C)cn2)CC1` [Example 709, dimethyl((3-((4bS,8aS)-4b,7,7-trimethyl-2-((6-(1-methylpiperidin-4-yl)pyridin-3-yl)amino)-4b,7,8,8a-tetrahydropyrano[3′,4′:4,5]pyrrolo[2,3-d]pyrimidin-9(5H)-yl)phenyl)imino)-16-sulfanone]: the IC50 was ≥ 1 µM. Then `CN1C[C@H]2C[C@@H]1CN2c1ccc(Nc2ncc3c(n2)N(c2cccc(N=S(C)(C)=O)c2)[C@H]2CC(C)(C)OC[C@@]32C)cc1` [Example 714, dimethyl((3-((4bS,8aS)-4b,7,7-trimethyl-2-((4-((1R,4R)-5-methyl-2,5-diazabicyclo[2.2.1]heptan-2-yl)phenyl)amino)-4b,7,8,8a-tetrahydropyrano[3′,4′:4,5]pyrrolo[2,3-d]pyrimidin-9(5H)-yl)phenyl)imino)-16-sulfanone], with 0.01 to 0.1 µM; and `CN1CCC(n2cc(Nc3ncc4c(n3)N(c3cccc(N=S(C)(C)=O)c3)[C@H]3CC(C)(C)OC[C@@]43C)cn2)CC1` [Example 715, dimethyl((3-((4bS,8aS)-4b,7,7-trimethyl-2-((1-(1-methylpiperidin-4-yl)-1H-pyrazol-4-yl)amino)-4b,7,8,8a-tetrahydropyrano[3′,4′:4,5]pyrrolo[2,3-d]pyrimidin-9(5H)-yl)phenyl)imino)-16-sulfanone], with 0.1 to 1 µM; and `CC1(C)C[C@@H]2N(c3cccc([C@H]4COCCN4)n3)c3nc(Nc4ccc(N5CCOCC5)cc4)ncc3[C@]2(C)CO1` [Example 732, (4bS,8aS)-4b,7,7-trimethyl-9-(6-((S)-morpholin-3-yl)pyridin-2-yl)-N-(4-morpholinophenyl)-4b,5,7,8,8a,9-hexahydropyrano[3′,4′:4,5]pyrrolo[2,3-d]pyrimidin-2-amine], with 0.01 to 0.1 µM. Consider `CC1(C)C[C@H]2N(c3cccc([C@@H]4CNCCO4)n3)c3nc(Nc4ccc(N5CCOCC5)cc4)ncc3[C@@]2(C)CO1` [Example 735, (4bR,8aR)-4b,7,7-trimethyl-9-(6-((S)-morpholin-2-yl)pyridin-2-yl)-N-(4-morpholinophenyl)-4b,5,7,8,8a,9-hexahydropyrano[3′,4′:4,5]pyrrolo[2,3-d]pyrimidin-2-amine], for which the IC50 is 0.01 to 0.1 µM.

`CC1(C)C[C@@H]2N(c3cccc([C@@H]4CNCCO4)n3)c3nc(Nc4ccc(N5CCOCC5)cc4)ncc3[C@]2(C)CO1` [Example 736, (4bS,8aS)-4b,7,7-trimethyl-9-(6-((S)-morpholin-2-yl)pyridin-2-yl)-N-(4-morpholinophenyl)-4b,5,7,8,8a,9-hexahydropyrano[3′,4′:4,5]pyrrolo[2,3-d]pyrimidin-2-amine] had an IC50 of 0.1 to 1 µM. Take `CC1(C)C[C@@H]2N(c3cccc([C@H]4CNCCO4)n3)c3nc(Nc4ccc(N5CCOCC5)cc4)ncc3[C@]2(C)CO1` [Example 738, (4bS,8aS)-4b,7,7-trimethyl-9-(6-((R)-morpholin-2-yl)pyridin-2-yl)-N-(4-morpholinophenyl)-4b,5,7,8,8a,9-hexahydropyrano[3′,4′:4,5]pyrrolo[2,3-d]pyrimidin-2-amine]: the IC50 is 0.01 to 0.1 µM. `CNCc1cccc(N2c3nc(NC(=O)[C@H]4C[C@@H]4c4ccccc4)ncc3[C@@]3(C)COC(C)(C)C[C@@H]23)n1` [Example 761, (1S,2S)-2-phenyl-N-((4bR,8aR)-4b,7,7-trimethyl-9-(6-((methylamino)methyl)pyridin-2-yl)-4b,5,7,8,8a,9-hexahydropyrano[3′,4′:4,5]pyrrolo[2,3-d]pyrimidin-2-yl)cyclopropane-1-carboxamide] displayed an IC50 of 0.01 to 0.1 µM.

With `CNCc1cccc(N2c3nc(NC(=O)[C@H]4C[C@@H]4c4cnn(C)c4)ncc3[C@@]3(C)COC(C)(C)C[C@@H]23)n1` [Example 763, (1S,2S)-2-(1-methyl-1H-pyrazol-4-yl)-N-((4bR,8aR)-4b,7,7-trimethyl-9-(6-((methylamino)methyl)pyridin-2-yl)-4b,5,7,8,8a,9-hexahydropyrano[3′,4′:4,5]pyrrolo[2,3-d]pyrimidin-2-yl)cyclopropane-1-carboxamide], the IC50 lay within 0.01 to 0.1 µM. `CNCc1cccc(N2c3nc(NC(=O)[C@H]4C[C@@H]4c4cccnc4)ncc3[C@@]3(C)COC(C)(C)C[C@@H]23)n1` [Example 769, (1S,2S)-2-(pyridin-3-yl)-N-((4bR,8aR)-4b,7,7-trimethyl-9-(6-((methylamino)methyl)pyridin-2-yl)-4b,5,7,8,8a,9-hexahydropyrano[3′,4′:4,5]pyrrolo[2,3-d]pyrimidin-2-yl)cyclopropane-1-carboxamide] displayed an IC50 of 0.1 to 1 µM.

In the case of `CC[C@@]1(O)CCc2ccc(N3c4nc(Nc5ccc(N6CCN(C)CC6)cc5)ncc4[C@@]4(C)COC(C)(C)C[C@@H]34)nc21` [Example 787, (R)-7-ethyl-2-((4bR,8aR)-4b,7,7-trimethyl-2-((4-(4-methylpiperazin-1-yl)phenyl)amino)-4b,7,8,8a-tetrahydropyrano[3′,4′:4,5]pyrrolo[2,3-d]pyrimidin-9(5H)-yl)-6,7-dihydro-5H-cyclopenta[b]pyridin-7-ol], the IC50 is < 0.01 µM. Take `CC[C@]1(O)CCc2ccc(N3c4nc(Nc5ccc(N6CCN(C)CC6)cc5)ncc4[C@@]4(C)COC(C)(C)C[C@@H]34)nc21` [Example 788, (S)-7-ethyl-2-((4bR,8aR)-4b,7,7-trimethyl-2-((4-(4-methylpiperazin-1-yl)phenyl)amino)-4b,7,8,8a-tetrahydropyrano[3′,4′:4,5]pyrrolo[2,3-d]pyrimidin-9(5H)-yl)-6,7-dihydro-5H-cyclopenta[b]pyridin-7-ol]: the IC50 is < 0.01 µM. For `CC[C@]1(O)CCc2ccc(N3c4nc(Nc5ccc(N6C[C@H]7C[C@@H]6CN7C)cc5)ncc4[C@@]4(C)COC(C)(C)C[C@@H]34)nc21` [Example 789, (S)-7-ethyl-2-((4bR,8aR)-4b,7,7-trimethyl-2-((4-((1R,4R)-5-methyl-2,5-diazabicyclo[2.2.1]heptan-2-yl)phenyl)amino)-4b,7,8,8a-tetrahydropyrano[3′,4′:4,5]pyrrolo[2,3-d]pyrimidin-9(5H)-yl)-6,7-dihydro-5H-cyclopenta[b]pyridin-7-ol], the IC50 was < 0.01 µM.

Turning to `CC[C@@]1(O)CCc2ccc(N3c4nc(Nc5ccc(N6C[C@H]7C[C@@H]6CN7C)cc5)ncc4[C@@]4(C)COC(C)(C)C[C@@H]34)nc21` [Example 790, (R)-7-ethyl-2-((4bR,8aR)-4b,7,7-trimethyl-2-((4-((1R,4R)-5-methyl-2,5-diazabicyclo[2.2.1]heptan-2-yl)phenyl)amino)-4b,7,8,8a-tetrahydropyrano[3′,4′:4,5]pyrrolo[2,3-d]pyrimidin-9(5H)-yl)-6,7-dihydro-5H-cyclopenta[b]pyridin-7-ol], the IC50 was < 0.01 µM.

In the case of `CC[C@]1(O)CCc2ccc(N3c4nc(Nc5ccc(N6C[C@@H]7C[C@H]6CN7C)cc5)ncc4[C@@]4(C)COC(C)(C)C[C@@H]34)nc21` [Example 791, (S)-7-ethyl-2-((4bR,8aR)-4b,7,7-trimethyl-2-((4-((1S,4S)-5-methyl-2,5-diazabicyclo[2.2.1]heptan-2-yl)phenyl)amino)-4b,7,8,8a-tetrahydropyrano[3′,4′:4,5]pyrrolo[2,3-d]pyrimidin-9(5H)-yl)-6,7-dihydro-5H-cyclopenta[b]pyridin-7-ol], the IC50 is < 0.01 µM.
